Test results published in patent US4342690A, “ω-Heteroaroyl(propionyl or butyryl)-L-prolines” (American Cyanamid Company, priority 1981, dated 1982).

Molecular target: T1, angiotensin converting enzyme (Oryctolagus cuniculus, UniProt P12822)
T1 construct: The ACE was extracted from rabbit lung acetone powder; tissue Pel-Freez Biol. Inc; host or cells: rabbit lung (acetone powder)
T1 sequence (P12822 34-1310): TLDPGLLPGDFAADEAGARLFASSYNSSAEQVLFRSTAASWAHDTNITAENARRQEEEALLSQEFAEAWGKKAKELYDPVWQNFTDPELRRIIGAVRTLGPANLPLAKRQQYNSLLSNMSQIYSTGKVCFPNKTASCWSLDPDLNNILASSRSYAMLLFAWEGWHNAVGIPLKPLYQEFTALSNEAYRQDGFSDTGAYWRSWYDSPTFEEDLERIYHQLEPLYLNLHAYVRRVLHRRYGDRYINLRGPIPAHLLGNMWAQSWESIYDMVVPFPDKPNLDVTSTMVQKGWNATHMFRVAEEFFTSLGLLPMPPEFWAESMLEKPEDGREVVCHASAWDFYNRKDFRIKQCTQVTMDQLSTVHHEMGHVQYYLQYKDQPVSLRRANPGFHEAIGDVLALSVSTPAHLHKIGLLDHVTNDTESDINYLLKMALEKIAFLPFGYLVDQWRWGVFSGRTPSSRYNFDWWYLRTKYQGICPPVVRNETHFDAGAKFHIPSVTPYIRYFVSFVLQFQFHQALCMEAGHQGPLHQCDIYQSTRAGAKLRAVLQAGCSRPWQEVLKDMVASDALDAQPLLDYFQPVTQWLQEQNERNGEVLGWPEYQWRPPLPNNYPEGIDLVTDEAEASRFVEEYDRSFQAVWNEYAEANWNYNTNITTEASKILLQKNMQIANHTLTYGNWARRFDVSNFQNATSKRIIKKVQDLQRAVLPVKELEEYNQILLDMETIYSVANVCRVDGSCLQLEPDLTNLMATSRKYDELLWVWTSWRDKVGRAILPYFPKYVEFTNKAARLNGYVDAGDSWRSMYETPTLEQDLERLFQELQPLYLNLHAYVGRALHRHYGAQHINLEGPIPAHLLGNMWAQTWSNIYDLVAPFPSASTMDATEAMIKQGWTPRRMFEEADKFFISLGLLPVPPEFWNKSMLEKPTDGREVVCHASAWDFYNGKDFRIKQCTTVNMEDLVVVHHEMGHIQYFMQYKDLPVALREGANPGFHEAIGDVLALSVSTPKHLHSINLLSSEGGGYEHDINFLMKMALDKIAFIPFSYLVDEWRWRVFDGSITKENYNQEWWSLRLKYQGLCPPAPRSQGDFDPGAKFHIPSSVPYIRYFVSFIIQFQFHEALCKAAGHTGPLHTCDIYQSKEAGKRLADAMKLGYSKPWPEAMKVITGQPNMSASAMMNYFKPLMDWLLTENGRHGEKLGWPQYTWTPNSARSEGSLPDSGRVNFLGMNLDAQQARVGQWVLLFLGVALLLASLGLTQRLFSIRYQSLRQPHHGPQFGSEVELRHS
Experiment: Spectrophotometric Assay for Angiotensin Converting Enzyme Inhibitors
Type: biochemical
Details: substrate benzoyl-glycyl-histidyl-leucine; crude ACE extract from rabbit lung acetone powder; 30 minutes at 37° C.
Source text: The activity of the novel compounds of this invention as hypotensive agents was established in two systems which measure their ability as angiotensin converting enzyme inhibitors; by utilizing a spectrophotometric assay of the compounds in vitro and by the measurement of the blood pressure lowering effect of the compounds in the aorta-coarcted renal hypertensive rats.
Spectrophotometric Assay for Angiotensin Converting Enzyme Inhibitors
The in vitro activity for inhibition of the angiotensin converting enzyme (ACE) was measured by the method of Cushman, D. W. and Cheung, H. S., Biochem. Pharmacol., 20, 1637-1648 (1971), using benzoyl-glycyl-histidyl-leucine as the substrate. The reaction mixture consisted of 50 μl. of potassium phosphate (500 mM., pH 10.2), […]. of sodium chloride (2500 mM.), 25 μl. of substrate (50 mM.), 30 to 50 μl. of the crude extract of ACE, 10 μl. of test compound (2.5 mM.) or vehicle and a suitable amount of distilled water to give a total volume of 250 μl. This reaction mixture was incubated for 30 minutes at 37° C. and the reaction was then terminated by the addition of 250 μl. of 1 N hydrochloric acid. The hippuric acid was then extracted with 1.5 ml. of ethyl acetate by vortex mixing for 15 seconds. After centrifugation, one ml. of th ethyl acetate layer was pipetted into a new tube and vaporated to dryness. The extracted hippuric acid was then dissolved in one ml. of water and the amount of this acid was then measured by its absorbance at 228 nm. The ACE was extracted from rabbit lung acetone powder (Pel-Freez Biol. Inc.) by blending 5 g. of the powder in 50 ml. of phosphate buffer (50 mM., pH 8.3) and then centrifuging at 40,000 g for 40 minutes. The supernatant was then kept at 5° C. and used as the enzyme source. The activity of the ACE inhibitor was calculated as the percent inhibition of ACE activity compared to the control value of that particular assay. A full dose-response inhibitory curve is then performed to determine the IC50 value which may be defined as the molar concentration of a compound that will inhibit the ACE activity by 50%.

Structure (SMILES) | IC50
CC(=O)SC(CC(=O)N1CCC[C@H]1C(=O)O)C(=O)c1cccs1 (stereo partly drawn) [Example 1, 1-[3-(Acetylthio)-3-(2-thenoyl)propionyl]-L-proline] | 256 nM
CC(=O)SC(CC(=O)N1CCC[C@H]1C(=O)O)C(=O)c1ccco1 (stereo partly drawn) [Example 36, 1-[3-Acetylthio-3-(2-furoyl)propionyl]-L-proline] | 675 nM
CC(=O)SC(C(=O)c1cc2ccccc2s1)C(C)C(=O)N1CCC[C@H]1C(=O)O (stereo partly drawn) [Example 35, 1-[3-Acetylthio-3-(benzo[b]thien-2-ylcarbonyl)-2-methylpropionyl]-L-proline] | 21000 nM
CC(=O)SC(CC(=O)N1CCC[C@H]1C(=O)O)C(=O)c1ccc(Cl)s1 (stereo partly drawn) [Example 3, 1-[3-(Acetylthio)-3-(5-chloro-2-thenoyl)propionyl]-L-proline] | 108 nM
CC(=O)SC(CC(=O)N1CCC[C@H]1C(=O)O)C(=O)c1ccc(Br)s1 (stereo partly drawn) [Example 2, 1-[3-(Acetylthio)-3-(5-bromo-2-thenoyl)propionyl]-L-proline] | 109 nM

More lines, now with the values ahead:

IC50 | Structure (SMILES)
139 nM | CC(=O)SC(CC(=O)N1CCC[C@H]1C(=O)O)C(=O)c1csc2ccccc12 (stereo partly drawn) [Example 4, 1-[3-(Acetylthio)-3-(benzo[b]thien-3-ylcarbonyl)propionyl]-L-proline]
74 nM | CC(=O)SC(CC(=O)N1CCC[C@H]1C(=O)O)C(=O)c1cc2ccccc2o1 (stereo partly drawn) [Example 37, 1-[3-Acetylthio-3-(2-benzofuranylcarbonyl)propionyl]-L-proline]
